Source: ChEMBL document CHEMBL1909046, “DrugMatrix in vitro pharmacology data”
Where a SMILES comes first, the peptide text is derived from it. Bridges are numbered along the chain shown (N, C = ends). [ ]: non-standard residue; d: D form. The star is where a group is joined. Ileψ(thiazoline)Cys = CC[C@H](C)[C@H](N)C1=N[C@H](C(=O)*)CS1; dOrn = NCCC[C@@H](N)C(=O)O

Experiments:
[1] = biological target: T1, Alpha-1A adrenergic receptor (Rattus norvegicus, UniProt P43140); assay: DRUGMATRIX: Alpha-1A adrenergic receptor radioligand binding (ligand: prazosin); type: cell membranes, Wistar, Submaxillary gland, Membrane; conditions: Not Active = under 50% inhibition at 10 µM
T1 sequence (P43140 whole entry): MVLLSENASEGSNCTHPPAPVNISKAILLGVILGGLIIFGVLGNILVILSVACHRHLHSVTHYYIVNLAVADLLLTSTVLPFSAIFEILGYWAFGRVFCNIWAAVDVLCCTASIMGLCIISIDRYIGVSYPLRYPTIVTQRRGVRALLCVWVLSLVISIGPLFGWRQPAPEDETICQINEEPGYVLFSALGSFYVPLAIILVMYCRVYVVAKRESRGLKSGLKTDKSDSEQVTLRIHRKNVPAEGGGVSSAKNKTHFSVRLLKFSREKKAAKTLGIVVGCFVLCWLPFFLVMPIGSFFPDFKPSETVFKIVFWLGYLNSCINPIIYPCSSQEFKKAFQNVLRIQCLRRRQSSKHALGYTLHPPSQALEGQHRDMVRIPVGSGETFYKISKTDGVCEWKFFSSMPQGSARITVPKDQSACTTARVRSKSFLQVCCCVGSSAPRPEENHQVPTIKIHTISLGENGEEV

[2] = biological target: T2, Alpha-1D adrenergic receptor (Homo sapiens, UniProt P25100); type: cell membranes, HEK293, Membrane; conditions: hek293; note: in other assays of this panel Not Active means under 50% inhibition at 10 µM
T2 sequence (P25100 whole entry): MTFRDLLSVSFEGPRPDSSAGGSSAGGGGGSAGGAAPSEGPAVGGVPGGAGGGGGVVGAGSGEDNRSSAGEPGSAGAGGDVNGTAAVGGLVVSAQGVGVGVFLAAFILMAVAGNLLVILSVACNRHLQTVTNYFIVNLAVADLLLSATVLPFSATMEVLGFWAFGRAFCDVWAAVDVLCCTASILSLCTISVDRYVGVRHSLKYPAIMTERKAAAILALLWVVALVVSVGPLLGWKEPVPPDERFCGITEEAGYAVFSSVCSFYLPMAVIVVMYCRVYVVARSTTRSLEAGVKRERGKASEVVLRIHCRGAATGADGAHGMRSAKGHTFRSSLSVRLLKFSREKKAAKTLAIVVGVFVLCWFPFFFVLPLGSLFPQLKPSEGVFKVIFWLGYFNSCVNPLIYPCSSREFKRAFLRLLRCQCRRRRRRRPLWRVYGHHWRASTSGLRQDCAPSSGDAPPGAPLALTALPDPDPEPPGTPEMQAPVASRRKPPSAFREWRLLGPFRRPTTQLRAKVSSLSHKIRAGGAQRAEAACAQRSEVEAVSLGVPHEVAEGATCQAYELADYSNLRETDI

[3] = DRUGMATRIX: ATPase, Na+/K+ enzyme inhibition (substrate: ATP); type: tissue-based, Sus scrofa, Heart; conditions: Not Active = under 50% inhibition at 10 µM
[4] = DRUGMATRIX: beta-Lactamase enzyme inhibition (substrate: Nitrocefin); parameters: species or system Bacillus cereus; conditions: Not Active = under 50% inhibition at 10 µM
[5] = DRUGMATRIX: Calcium Channel Type L, Benzothiazepine radioligand binding (ligand: [3H] Diltiazem); type: cell membranes, Rattus norvegicus, Wistar, Brain, Membrane; conditions: Not Active = under 50% inhibition at 10 µM
[6] = biological target: Vasopressin V1a receptor (Homo sapiens, UniProt P37288); type: cell membranes, Membrane; conditions: hek293; note: in other assays of this panel Not Active means under 50% inhibition at 10 µM
Vasopressin V1a receptor, sequence (P37288 whole entry): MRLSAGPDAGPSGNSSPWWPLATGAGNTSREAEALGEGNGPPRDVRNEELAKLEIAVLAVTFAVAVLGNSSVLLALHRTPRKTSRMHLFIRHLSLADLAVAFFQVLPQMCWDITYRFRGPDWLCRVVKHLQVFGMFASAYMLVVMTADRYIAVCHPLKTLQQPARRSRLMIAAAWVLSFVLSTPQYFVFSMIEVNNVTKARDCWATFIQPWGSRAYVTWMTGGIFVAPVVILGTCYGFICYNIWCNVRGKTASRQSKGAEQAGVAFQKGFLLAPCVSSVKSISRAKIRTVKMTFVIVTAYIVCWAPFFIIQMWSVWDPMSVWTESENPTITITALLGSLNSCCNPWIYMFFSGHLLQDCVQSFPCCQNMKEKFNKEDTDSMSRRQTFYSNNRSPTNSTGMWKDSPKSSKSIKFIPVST

[7] = biological target: C-C chemokine receptor type 5 (Homo sapiens, UniProt P51681); type: cell membranes, Membrane; conditions: hek293; note: in other assays of this panel Not Active means under 50% inhibition at 10 µM
C-C chemokine receptor type 5, sequence (P51681 whole entry): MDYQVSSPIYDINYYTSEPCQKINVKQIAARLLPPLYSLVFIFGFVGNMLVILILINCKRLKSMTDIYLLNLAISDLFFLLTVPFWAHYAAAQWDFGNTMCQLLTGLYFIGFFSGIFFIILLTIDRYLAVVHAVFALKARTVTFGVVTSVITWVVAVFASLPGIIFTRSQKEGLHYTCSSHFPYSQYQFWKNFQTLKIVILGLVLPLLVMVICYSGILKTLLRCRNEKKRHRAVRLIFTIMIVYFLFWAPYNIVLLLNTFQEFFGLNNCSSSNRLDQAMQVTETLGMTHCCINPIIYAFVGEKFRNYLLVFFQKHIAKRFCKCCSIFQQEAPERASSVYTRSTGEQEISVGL

[8] = biological target: Sodium-dependent dopamine transporter (Homo sapiens, UniProt Q01959); assay: DRUGMATRIX: Dopamine Transporter radioligand binding (ligand: [125I] RTI-55); type: cell membranes, CHO-K1, Membrane; conditions: cho-k1; Not Active = under 50% inhibition at 10 µM
Sodium-dependent dopamine transporter, sequence (Q01959 whole entry): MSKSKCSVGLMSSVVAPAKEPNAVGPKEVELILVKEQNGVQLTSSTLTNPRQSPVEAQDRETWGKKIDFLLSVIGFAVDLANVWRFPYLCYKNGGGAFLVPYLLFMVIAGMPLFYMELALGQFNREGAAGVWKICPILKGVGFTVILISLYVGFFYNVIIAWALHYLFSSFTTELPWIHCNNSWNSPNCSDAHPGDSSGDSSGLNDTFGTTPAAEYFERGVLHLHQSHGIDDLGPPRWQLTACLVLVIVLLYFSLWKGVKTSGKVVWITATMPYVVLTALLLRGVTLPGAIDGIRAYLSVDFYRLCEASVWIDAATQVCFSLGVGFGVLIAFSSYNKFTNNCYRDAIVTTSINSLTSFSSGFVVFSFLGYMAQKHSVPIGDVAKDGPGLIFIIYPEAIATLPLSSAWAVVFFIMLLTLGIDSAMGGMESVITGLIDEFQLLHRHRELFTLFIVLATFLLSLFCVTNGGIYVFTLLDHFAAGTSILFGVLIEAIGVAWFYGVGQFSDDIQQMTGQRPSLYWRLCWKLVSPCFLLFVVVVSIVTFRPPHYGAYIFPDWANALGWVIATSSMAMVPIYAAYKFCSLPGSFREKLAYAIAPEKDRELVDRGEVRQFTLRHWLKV

[9] = biological target: Histamine H2 receptor (Homo sapiens, UniProt P25021); type: cell membranes, CHO-K1, Membrane; conditions: cho-k1; note: in other assays of this panel Not Active means under 50% inhibition at 10 µM
Histamine H2 receptor, sequence (P25021 whole entry): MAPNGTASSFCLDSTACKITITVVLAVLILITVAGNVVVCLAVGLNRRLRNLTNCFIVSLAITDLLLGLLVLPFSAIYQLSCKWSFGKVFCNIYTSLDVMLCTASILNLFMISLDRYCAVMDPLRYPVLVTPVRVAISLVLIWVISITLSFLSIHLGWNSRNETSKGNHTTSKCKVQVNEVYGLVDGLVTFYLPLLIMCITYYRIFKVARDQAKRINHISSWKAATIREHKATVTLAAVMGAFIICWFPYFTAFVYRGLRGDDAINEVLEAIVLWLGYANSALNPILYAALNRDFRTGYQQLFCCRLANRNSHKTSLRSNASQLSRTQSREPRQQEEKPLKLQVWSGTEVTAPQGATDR

[10] = biological target: cGMP-specific 3',5'-cyclic phosphodiesterase (Homo sapiens, UniProt O76074); assay: DRUGMATRIX: Phosphodiesterase PDE5 enzyme inhibition (substrate: [3H]cGMP + cGMP); type: tissue-based, Platelet; conditions: platelet; Not Active = under 50% inhibition at 10 µM
[11] = biological target: T3, Cathepsin G (Homo sapiens, UniProt P08311); type: tissue-based; conditions: neutrophil
T3 sequence (P08311 whole entry): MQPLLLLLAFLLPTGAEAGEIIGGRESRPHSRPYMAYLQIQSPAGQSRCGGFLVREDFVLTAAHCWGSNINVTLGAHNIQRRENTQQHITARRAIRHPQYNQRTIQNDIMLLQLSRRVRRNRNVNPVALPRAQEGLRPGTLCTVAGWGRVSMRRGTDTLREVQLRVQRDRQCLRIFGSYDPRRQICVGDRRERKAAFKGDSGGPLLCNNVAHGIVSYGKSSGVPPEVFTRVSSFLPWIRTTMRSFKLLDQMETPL

[12] = biological target: Protein kinase C alpha type (Homo sapiens, UniProt P17252); type: cell-based; conditions: sf9
[13] = biological target: Tyrosine-protein kinase Fyn (Homo sapiens, UniProt P06241); assay: biochemical; type: cell-based, Insect cells; conditions: insect cells
Tyrosine-protein kinase Fyn, sequence (P06241 whole entry): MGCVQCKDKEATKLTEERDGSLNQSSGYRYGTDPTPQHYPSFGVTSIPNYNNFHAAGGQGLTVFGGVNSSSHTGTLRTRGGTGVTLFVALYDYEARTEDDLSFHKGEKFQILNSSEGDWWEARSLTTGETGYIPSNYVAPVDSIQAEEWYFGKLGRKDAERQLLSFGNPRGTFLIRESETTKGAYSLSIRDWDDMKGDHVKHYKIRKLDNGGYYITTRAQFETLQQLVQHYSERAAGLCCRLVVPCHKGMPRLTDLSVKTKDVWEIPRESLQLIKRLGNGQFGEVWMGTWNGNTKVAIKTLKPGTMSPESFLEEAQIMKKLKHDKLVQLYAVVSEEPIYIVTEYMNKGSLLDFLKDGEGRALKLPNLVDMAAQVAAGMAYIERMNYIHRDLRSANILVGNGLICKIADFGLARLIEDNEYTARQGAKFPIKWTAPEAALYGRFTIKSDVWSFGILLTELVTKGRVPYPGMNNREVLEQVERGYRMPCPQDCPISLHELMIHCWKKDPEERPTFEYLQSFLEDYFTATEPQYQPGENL

[14] = biological target: T4, 5-hydroxytryptamine receptor 1A (Rattus norvegicus, UniProt P19327); type: cell membranes, CHO-K1, Membrane; conditions: cho-k1; note: in other assays of this panel Not Active means under 50% inhibition at 10 µM
T4 sequence (P19327 whole entry): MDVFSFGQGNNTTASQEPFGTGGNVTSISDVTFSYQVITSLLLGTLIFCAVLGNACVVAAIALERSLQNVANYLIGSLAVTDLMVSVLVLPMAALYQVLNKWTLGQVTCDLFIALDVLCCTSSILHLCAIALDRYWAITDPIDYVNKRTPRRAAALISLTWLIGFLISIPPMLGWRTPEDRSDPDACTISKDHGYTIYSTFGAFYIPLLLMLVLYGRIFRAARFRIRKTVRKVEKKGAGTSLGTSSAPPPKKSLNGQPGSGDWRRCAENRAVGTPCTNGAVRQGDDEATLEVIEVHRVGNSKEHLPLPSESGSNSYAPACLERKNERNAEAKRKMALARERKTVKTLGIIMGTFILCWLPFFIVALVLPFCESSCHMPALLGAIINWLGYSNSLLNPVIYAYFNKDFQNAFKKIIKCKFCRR

C=C1[C@@H]2CCC3[C@@](CC[C@@H]4[C@H](C(=O)O)C[C@@H](O[C@@H]5O[C@H](CO)[C@@H](OS(=O)(=O)[O-])[C@H](OS(=O)(=O)[O-])[C@H]5OC(=O)CC(C)C)C[C@@]34C)(C2)[C@@H]1O.[K+].[K+] (stereo partly drawn) [ATRACTYLOSIDE]
Not Active: IC50 [1] | IC50 [2] | IC50 [3] | Ki [3] | IC50 [4] | Ki [4] | IC50 [5] | Ki [5] | IC50 [6] | IC50 [7] | IC50 [8] | IC50 [9] | IC50 [10] | IC50 [11] | IC50 [12] | IC50 [13] | IC50 [14]

Cn1cnc([N+](=O)[O-])c1Sc1ncnc2nc[nH]c12 [AZATHIOPRINE]
Not Active: IC50 [1] | IC50 [2] | IC50 [3] | Ki [3] | IC50 [4] | Ki [4] | IC50 [5] | Ki [5] | IC50 [6] | IC50 [7] | IC50 [8] | IC50 [9] | IC50 [10] | IC50 [11] | IC50 [12] | IC50 [13] | IC50 [14]

CC1(C)S[C@@H]2[C@H](NC(=O)[C@H](NC(=O)N3CCNC3=O)c3ccccc3)C(=O)N2[C@H]1C(=O)O [AZLOCILLIN]
Not Active: IC50 [1] | IC50 [2] | IC50 [3] | Ki [3] | IC50 [4] | Ki [4] | IC50 [5] | Ki [5] | IC50 [6] | IC50 [7] | IC50 [8] | IC50 [9] | IC50 [10] | IC50 [11] | IC50 [12] | IC50 [13] | IC50 [14]

CC[C@H](C)[C@H](N)C1=N[C@H](C(=O)N[C@@H](CC(C)C)C(=O)N[C@H](CCC(=O)O)C(=O)N[C@H](C(=O)N[C@H]2CCCCNC(=O)[C@H](CC(N)=O)NC(=O)[C@@H](CC(=O)O)NC(=O)[C@H](Cc3cnc[nH]3)NC(=O)[C@@H](Cc3ccccc3)NC(=O)[C@H]([C@@H](C)CC)NC(=O)[C@@H](CCCN)NC2=O)[C@@H](C)CC)CS1 [BACITRACIN] ({Ileψ(thiazoline)Cys}-L[dE]IK[dOrn]I[dF]H[dD]N; lactam 4-C)
Not Active: IC50 [1] | IC50 [2] | IC50 [3] | Ki [3] | IC50 [4] | Ki [4] | IC50 [5] | Ki [5] | IC50 [6] | IC50 [7] | IC50 [8] | IC50 [9] | IC50 [10] | IC50 [11] | IC50 [12] | IC50 [13] | IC50 [14]

CCOC(=O)c1ccc(N)cc1 [BENZOCAINE]
Not Active: IC50 [1] | IC50 [2] | IC50 [3] | Ki [3] | IC50 [4] | Ki [4] | IC50 [5] | Ki [5] | IC50 [6] | IC50 [7] | IC50 [8] | IC50 [9] | IC50 [10] | IC50 [11] | IC50 [12] | IC50 [13] | IC50 [14]

OCc1ccccc1 [BENZYL ALCOHOL]
Not Active: IC50 [1] | IC50 [2] | IC50 [3] | Ki [3] | IC50 [4] | Ki [4] | IC50 [5] | Ki [5] | IC50 [6] | IC50 [7] | IC50 [8] | IC50 [9] | IC50 [10] | IC50 [11] | IC50 [12] | IC50 [13] | IC50 [14]

CC(C)(Oc1ccc(CCNC(=O)c2ccc(Cl)cc2)cc1)C(=O)O [BEZAFIBRATE]
Not Active: IC50 [1] | IC50 [2] | IC50 [3] | Ki [3] | IC50 [4] | Ki [4] | IC50 [5] | Ki [5] | IC50 [6] | IC50 [7] | IC50 [8] | IC50 [9] | IC50 [10] | IC50 [11] | IC50 [12] | IC50 [13] | IC50 [14]

CCCC[C@@H](CC)COC(=O)c1ccccc1C(=O)OC[C@@H](CC)CCCC [BIS(2-ETHYLHEXYL)PHTHALATE]
Not Active: IC50 [1] | IC50 [2] | IC50 [3] | Ki [3] | IC50 [4] | Ki [4] | IC50 [5] | Ki [5] | IC50 [6] | IC50 [7] | IC50 [8] | IC50 [9] | IC50 [10] | IC50 [11] | IC50 [12] | IC50 [13] | IC50 [14]

Brc1ccccc1 [BROMOBENZENE]
Not Active: IC50 [1] | IC50 [2] | IC50 [3] | Ki [3] | IC50 [4] | Ki [4] | IC50 [5] | Ki [5] | IC50 [6] | IC50 [7] | IC50 [8] | IC50 [9] | IC50 [10] | IC50 [11] | IC50 [12] | IC50 [13] | IC50 [14]
